For nine compounds, EC50 and IC50 results are on record in US7105679B2, “Heteroatom containing tetracyclic derivatives as selective estrogen receptor modulators” (priority 2001, dated 2006).

The test system of assay [1] is MCF-7 cells. Kind of assay: MCF-7 Cell Proliferation Assay (14C-thymidine, agonist and antagonist mode). Type of assay: cell-based. Particulars: number in brackets = number of tests, NA = no detected activity at test concentration. On the procedure:
This assay was run according to the procedure described by Welshons, et al., (Breast Cancer Res. Treat., 1987, 10(2), 169-75), with minor modification.
Briefly, MCF-7 cells (from Dr. C. Jordan, Northwestern University) were maintained in RPMI 1640 phenol red free medium (Gibco) in 10% FBS (Hyclone), supplemented with bovine insulin and non-essential amino acid (Sigma). The cells were initially treated with 4-hydoxyltamoxifen (10^−8 M) and let stand at 37° C. for 24 hours. Following this incubation with tamoxifen, the cells were treated with compounds at various concentrations.
Compounds to be tested in the agonist mode were added to the culture media at varying concentrations. Compounds to be treated in the antagonist mode were prepared similarly, and 10 nM 17β-estradiol was also added to the culture media. The cells were incubated for 24 hours at 37° C. Following this incubation, 0.1 μCi of ^14C-thymidine (56 mCi/mmol, Amersham) was added to the culture media and the cells were incubated for an additional 24 hours at 37° C. The cells were then washed twice with Hank's buffered salt solution (HBSS) (Gibco) and counted with a scintillation counter. The increase in the ^14C-thymidine in the compound treated cells relative to the vehicle control cells were reported as percent increase in cell proliferation.

Assay [2] concerns Ishikawa cells. Description: Alkaline Phosphatase Assay in Human Endometrial Ishikawa Cells (agonist and antagonist mode). The class given is cell-based. To be noted: number in brackets = number of tests, NA = no detected activity at test concentration; for EC50: agonist mode; for IC50: antagonist mode with 10 nM 17β-estradiol. How it is done: This assay was run according to the procedure described by Albert et a., Cancer Res, […], 50(11), 330-6-10, with minor modification.
Ishikawa cells (from ATCC) were maintained in DMEM/F12 (1:1) phenol red free medium (Gibco) supplemented with 10% calf serum (Hyclone). 24 hours prior to testing, the medium was changed to DMEM/F12 (1:1) phenol red free containing 2% calf serum.
Compounds to be tested in the agonist mode were added to the culture media at varying concentrations. Compounds to be treated in the antagonist mode were prepared similarly, and 10 nM 17β-estradiol was also added to the culture media. The cells were then incubated at 37° C. for 3 days. On the fourth day, the media was remove, 1 volume of 1× Dilution Buffer (Clontech) was added to the well followed by addition of 1 volume of Assay Buffer (Clontech). The cells were then incubated at room temperature for 5 minutes. […] The cells were incubated at room temperature for 10 minutes and then quantified on a luminometer. The increase of chemiluminescence over vehicle control was used to calculate the increase in alkaline phosphatase activity.

In assay [3] the target is T1, hER-β (Homo sapiens, UniProt Q92731).
T1 construct: purchased Panvera
Description: Estrogen Receptor β Fluorescence Polarization Assay (binding of Fluormone ES2). The text has this: This assay monitors binding of a fluorescent analog of estrogen (Fluormone ES2, Panvera) to the estrogen receptor. Plates are read in a fluorometer that can be set to polarization mode. A decrease in […] relative to vehicle control is an indication of binding of a compound to the receptor.
It is crucial to avoid introduction of air bubbles into the reaction in each well of the 96 well plate throughout this procedure. (Bubbles on the surface of the reaction disrupt light flow, affecting the polarization reading.) However, it is also crucial to effectively mix the reaction components upon addition to the well.
On ice, a 2× standard mixture of Assay Buffer (Panvera), 10 nM DTT and 40 nM ES2 was prepared. On ice, a 2× reaction mixture of Assay Buffer (Panvera), and 20 nM hER-β (Panvera) and 40 nM ES2 was also prepared.
Dilutions of test compound were prepared in 30% (v/v) dimethyl sulfoxide/50 mM HEPES, pH 7.5. At this point, the dilutions were 40× the final required concentration.
The standard mixture at 50 μL was then added to each well. The reaction mixture at 48 μL was added to all wells. The compound dilution at 2.5 μL was added to the appropriate wells. The reaction mixtures were mixed using a manual pipette, a roll of aluminum foil adhesive cover was placed on the plate and the plate incubated at room temperature for 1 hour.
(In fluorescence polarisation assays a small probe gives low polarisation when free and higher when bound to something large.)

Assay [4] has as its target T2, human estrogen receptor α (Homo sapiens, UniProt P03372).
T2 construct: purchased Panvera
T2 sequence (P03372 1-595): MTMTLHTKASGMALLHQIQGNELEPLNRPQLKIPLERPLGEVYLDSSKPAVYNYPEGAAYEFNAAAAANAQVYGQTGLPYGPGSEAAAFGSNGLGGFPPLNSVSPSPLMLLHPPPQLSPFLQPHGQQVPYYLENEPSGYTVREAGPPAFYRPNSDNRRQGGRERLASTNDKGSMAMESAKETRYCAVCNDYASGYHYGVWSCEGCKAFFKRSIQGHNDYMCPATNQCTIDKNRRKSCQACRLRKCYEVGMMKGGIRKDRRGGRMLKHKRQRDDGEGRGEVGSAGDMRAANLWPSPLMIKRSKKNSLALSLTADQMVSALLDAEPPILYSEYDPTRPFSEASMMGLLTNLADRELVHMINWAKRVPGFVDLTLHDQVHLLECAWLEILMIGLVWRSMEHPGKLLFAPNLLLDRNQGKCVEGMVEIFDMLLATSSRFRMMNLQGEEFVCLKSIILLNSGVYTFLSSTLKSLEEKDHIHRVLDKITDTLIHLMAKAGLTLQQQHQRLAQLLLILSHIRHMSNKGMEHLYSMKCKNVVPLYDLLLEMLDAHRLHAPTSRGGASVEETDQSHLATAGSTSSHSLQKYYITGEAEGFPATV
Kind of assay: Estrogen Receptor α Flash Plate Assay (binding of radiolabeled estrogen). On the procedure:
This assay monitors binding of radiolabeled estrogen to the estrogen receptor. It is performed on a BioMek 2000 (Beckman). Plates are read in a scintillation counter (Packard TopCount), with decreased counts an indication of binding of a compound to the receptor.
The plate was sealed and incubated at 4° C. overnight.
On day two, each well was washed three times with 200 μL PBS, pH 7.2, at room temperature. To each well was then added 98 μL radiolabeled estrogen (0.5 nM, which equals 6 nCi for a 120 Ci/mmol batch, Amersham), diluted in ESB and 5 mM dithiothreitol (DTT). To individual wells were then added 2.5 μL test compound diluted in 30% (v/v) dimethyl sulfoxide/50 mM HEPES, pH 7.5. The wells were mixed three times by aspiration, the plate sealed and incubated at room temperature for one hour. The wells were then counted for 1 min in a TopCount scintillation counter (Packard).

The mark [5] stands for this setting: flash plate binding, 0.5 nM radiolabeled estrogen, number in brackets = No. of determinations, NA = no detected activity at test concentration, read-out: Estrogen Receptor α in μM (No.).
The mark [6] stands for this setting: Homo sapiens, MCF7, agonist mode.
Setting [7] is: Homo sapiens, MCF7, antagonist mode with 10 nM 17β-estradiol.

“And” between values parts separate entries of the source, which are not always exact repeats. Equal values may be shown once. Read-outs that look alike come from different tables or passages of the source.

T1 sequence (Q92731 whole entry): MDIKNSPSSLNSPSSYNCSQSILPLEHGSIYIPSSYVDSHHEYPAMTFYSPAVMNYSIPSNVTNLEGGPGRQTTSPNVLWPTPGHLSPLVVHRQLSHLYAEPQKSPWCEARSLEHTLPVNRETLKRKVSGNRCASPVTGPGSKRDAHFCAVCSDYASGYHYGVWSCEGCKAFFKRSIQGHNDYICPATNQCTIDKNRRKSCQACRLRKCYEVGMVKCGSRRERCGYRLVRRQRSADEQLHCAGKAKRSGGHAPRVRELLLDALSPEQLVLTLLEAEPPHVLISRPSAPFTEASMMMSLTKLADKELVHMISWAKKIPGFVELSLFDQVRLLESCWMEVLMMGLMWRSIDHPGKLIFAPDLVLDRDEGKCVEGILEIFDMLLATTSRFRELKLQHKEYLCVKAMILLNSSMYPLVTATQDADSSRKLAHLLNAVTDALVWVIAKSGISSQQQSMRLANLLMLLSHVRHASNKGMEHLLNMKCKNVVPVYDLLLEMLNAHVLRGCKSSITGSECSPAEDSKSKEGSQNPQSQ

Broadly, the EC50 is the midpoint of the concentration-response curve. With `Oc1ccc2c(c1)O[C@@H](c1ccc(OCCN3CCCCC3)cc1)C1=C2COc2cc(O)ccc21` (stereo in doubt) [Compound 15, 5S*-(+)-[4-(2-Piperidin-1-yl-ethoxy)-phenyl]-5,11-dihydro-chromeno[4,3-c]chromene-2,8-diol], the EC50 in assay [1] (agonist mode) and in assay [2] was over 10 µM each time. Moreover, the IC50 was 112 nM in assay [2]; 0.017 µM and 0.028 µM in assay [3] (fluorescence polarization binding, Fluormone ES2, number in brackets = No. of determinations, NA = no detected activity at test concentration, read-out: Estrogen Receptor β in μM (No.)).

As to `c1ccc2c(c1)O[C@@H](c1ccc(OCCN3CCCCC3)cc1)C1=C2COc2ccccc21` (stereo in doubt) [Compound 169, 5S*-(+)-1-{2-[4-(5,11-Dihydro-chromeno[4,3-c]chromen-5-yl)-phenoxy]-ethyl}-piperidine], the figures for the IC50 in assay [1] (antagonist mode with 10 nM 17β-estradiol), in assay [2] and in assay [4] (setting [5]) were at least 10000 nM, 830 nM and 0.072 µM, respectively.

`Oc1ccc2c(c1)OC(c1ccccc1)C1=C2COc2cc(O)ccc21` (stereo not drawn) [Compound 6, 5-Phenyl-5,11-dihydro-chromeno[4,3-c]chromene-2,8-diol]: the EC50 is 0.097 µM in assay [1] (setting [6]) and 0.033 µM in assay [2] (Homo sapiens). Also, the IC50 in assay [1] (setting [7]) was over 10000 nM; in assay [2] (Homo sapiens), over 10000 nM; in assay [3] it was 0.016 µM.

As to `Oc1ccc2c(c1)OC(c1ccc(OCCN3CCCC3)cc1)C1=C2COc2cc(O)ccc21` (stereo not drawn) [Compound 11, 5-[4-(2-Pyrrolidin-1-yl-ethoxy)-phenyl]-5,11-dihydrochromeno[4,3-c]chromene-2,8-diol], in assay [1] (setting [6]), the EC50 was over 10 µM. The IC50 was 246 nM in assay [1] (setting [7]), 80 nM in assay [2] (Homo sapiens) and 0.7 µM in assay [3].

As for `Oc1ccc2c(c1)OC(c1ccc(OCCN3CCOCC3)cc1)C1=C2COc2cc(O)ccc21` (stereo not drawn) [Compound 13, 5-[4-(2-Morphlin-4-yl-ethoxy)-phenyl]-5,11-dihydrochromeno[4,3-c]chromene-2,8-diol], the EC50 in assay [1] (setting [6]) and in assay [2] (Homo sapiens) was over 10 µM in each case. Further, the IC50 in assay [1] (setting [7]) is 1400 nM; in assay [2] (Homo sapiens), 228 nM; in assay [3] it was 0.026 µM.

Take `Oc1ccc2c(c1)OC(c1ccc(OCCN3CCCCCC3)cc1)C1=C2COc2cc(O)ccc21` (stereo not drawn) [Compound 17, 5-[4-(2-Azepan-1-yl-ethoxy)-phenyl]-5,11-dihydrochromeno[4,3-c]chromene-2,8-diol]: the EC50 in assay [1] (setting [6]) and in assay [2] (Homo sapiens) was over 10 µM throughout. In addition, the IC50 is 3580 nM in assay [1] (setting [7]), 513 nM in assay [2] (Homo sapiens) and 0.031 µM in assay [3].

On to `CC(C)(C)C(=O)Oc1ccc2c(c1)OC(c1ccc(OCCN3CCCCC3)cc1)C1=C2COc2cc(OC(=O)C(C)(C)C)ccc21` (stereo not drawn) [Compound 22, 2,2-Dimethyl-propionic acid, 8-(2,2-dimethyl-propionyloxy)-5-[4-(2-piperidin-1-yl-ethoxy)-phenyl]-5,11-dihydro-chromeno[4,3-c]chromen-2-yl ester], for which the EC50 in assay [1] (setting [6]) and in assay [2] (Homo sapiens) was over 10 µM each time. Besides, the IC50 in assay [1] (setting [7]) came out at 662 nM; in assay [2] (Homo sapiens), 53.5 nM; in assay [4] (setting [5]) it was 3.45 µM.

On to `CC(C)(C)C(=O)Oc1ccc2c(c1)OC(C)(c1ccc(OCCN3CCCCC3)cc1)C1=C2COc2cc(OC(=O)C(C)(C)C)ccc21` (stereo not drawn) [Compound 41, 2,2-Dimethyl-propionic acid 8-(2,2-dimethyl-propionyloxy)-11-methyl-11-[4-(2-piperidin-1-yl-ethoxy)-phenyl]-5,11-dihydro-chromeno[4,3-c]chromen-2-yl ester], for which the EC50 in assay [1] (setting [6]) and in assay [2] (Homo sapiens) was over 10 µM throughout. The IC50 in assay [1] (setting [7]) is over 10000 nM; in assay [2] (Homo sapiens), 550 nM; in assay [4] (setting [5]), 1.9 µM.

Consider `Oc1ccc2c(c1)OCCC1=C2C(c2ccc(OCCN3CCCCCC3)cc2)Oc2cc(F)ccc21` (stereo not drawn) [Compound 174, 5-[4-(2-Azepan-1-yl-ethoxy)-phenyl]-8-fluoro-11,12-dihydro-5H-6,13-dioxa-benzo[3,4]cyclohepta[1,2-a]naphthalen-2-ol], for which the IC50 in assay [1] (setting [7]) is 1740 nM; in assay [2] (Homo sapiens) it was 135 nM; in assay [4], 0.0015 µM and 0.0013 µM.
